Tested on: miR-124
Test: miR-124 (RT-q)PCR in PBMCs, CD4+ and CD8+ T cells, macrophages
Assay type: cell-based, human
Conditions: PBMCs treated with antiretrovirals
Method: Buffy coats from HIV-negative individuals were obtained from the local blood donation center in Centre de transfusion sanguine Montpellier. Human peripheral blood mononuclear cells (PBMCs) were isolated by Ficoll (Histopaque, Sigma) gradient centrifugation. CD4+ and CD8+ T cells were purified from PBMCs after Ficoll gradient centrifugation by Human CD4+ beads positive selection and CD8+ beads positive selection, respectively (Miltenyi). PBMCs, CD4+ and CD8+ T cells were grown at 37° C. and 5% CO2 to a density of 1.5×10^6 cells/ml in RPMI GlutaMAX medium (Life Technologies) supplemented with 10% fetal calf serum (FCS) (Thermo Fisher), 40 U/ml of IL2 (PeproTech) and 5 μg/mL of PHA (Roche) for 2 days. Three days later, cells were resuspended at 1.5×10^6 cells/ml in RPMI supplemented with 10% FCS and 40 U/ml IL2 and separated into two parts (infected and uninfected cells). Cells were infected with 80 ng of p24/106 cells of the YU-2 strain for 4 to 6 hours and then rinsed with PBS before medium renewal.
Both infected and uninfected cells were then centrifuged and resuspended to a density of 1.5×10^6 cells/ml in medium supplemented with diluted drug solubilized in DMSO (Sigma) to a final 0.05% DMSO concentration or antiretroviral compounds according to the manufacturer's instructions. Cells were treated for 6 days with a medium renewal at day 3. HIV p24 titration was performed by ELISA from cell culture supernatants with Innotest kit (Ingen) according to the manufacturer's instructions.
To generate monocyte-derived macrophages, monocytes were isolated using CD14+ positive microbeads (Miltenyi) and cultured in X-VIVO 10 medium (Lonza) supplemented with 10 mM HEPES, 1 mM sodium pyruvate, 1% non-essential amino acids, 10% FBS, 10 ng/ml GM-CSF and 100 ng/ml M-CSF for 7 days with medium renewal at day 3. After 7 days of differentiation, the cells were washed, plated in 6-well plates and incubated for 24 hours in medium without cytokine addition. Cells were treated for 6 days with a partial medium change at day 3.
miRNAs were extracted from PBMCs, CD4+ or CD8+ T cells using the NucleoSpin miRNeasy kit (Macherey-Nagel) according to the manufacturer's instructions. miRNA reverse transcription (RT) was performed using the miScript II RT kit (Qiagen). […] The relative levels of miR-124 were calculated using the 2^−ΔΔCt method.
Total RNA was extracted from macrophages using the Macherey-Nagel NucleoSpin miRNeasy kit. miRNA reverse transcription (RT) was performed on 2 μl of total RNA according to the Applied Biosystems TaqMan Advanced miRNA assays protocol for TaqMan qPCR. […] PCR runs were analyzed with Applied Biosystems ViiA 7 software.

Compound	miR-124 expression compared to untreated cells (DMSO)
maraviroc	did not upregulate
O=C1Nc2ccc(Cl)cc2[C@@](C#CC2CC2)(C(F)(F)F)O1 [efavirenz]	did not upregulate
CC(C)CN(C[C@@H](O)[C@H](Cc1ccccc1)NC(=O)O[C@H]1CO[C@H]2OCC[C@H]21)S(=O)(=O)c1ccc(N)cc1 [darunavir]	did not upregulate
Cc1cn([C@H]2C[C@H](N=[N+]=[N-])[C@@H](CO)O2)c(=O)[nH]c1=O [AZT]	did not upregulate
